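Values below derive from 48-hour exposures of cells grown in 96-well plates, with endpoints linearly interpolated between the two concentrations bracketing the appropriate inhibition level. At the GI50, growth is halved.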 Activity calls are given as the source filed them. Rule as the data show it: active = GI50 up to about 1.1 µM and inactive = higher.
Experiments:
Test in all cases: inhibition of tumour cell growth, NCI panel, 48 h
SF-268 = system: SF-268
KM12 = system: KM12
HCT-15 = system: HCT-15
U-251 = system: U-251
COLO 205 = system: COLO 205
RXF 393 = system: RXF 393
SK-OV-3 = system: SK-OV-3
SF-539 = system: SF-539
K562 = system: K562
RPMI-8226 = system: RPMI-8226
HCC 2998 = system: HCC 2998
NCI-H23 = system: NCI-H23
CAKI-1 = system: CAKI-1
SNB-75 = system: SNB-75
HL-60 = system: HL-60
M14 = system: M14
OVCAR-4 = system: OVCAR-4

Row | Compound | GI50 (SF-268) | GI50 (KM12) | GI50 (HCT-15) [µM] | GI50 (U-251) | GI50 (COLO 205) | GI50 (RXF 393) | GI50 (SK-OV-3) | GI50 (SF-539) | GI50 (K562) | GI50 (RPMI-8226) | GI50 (HCC 2998) | GI50 (NCI-H23) | GI50 (CAKI-1) | GI50 (SNB-75) | GI50 (HL-60) | GI50 (M14) | GI50 (OVCAR-4)
1 | COc1ccc2c(c1)OCCCN(C)OC2c1ccccc1 (configuration not stated) | > 100 µM (inactive) | > 100 µM (inactive) | > 100 | > 100 µM (inactive) | > 100 µM (inactive) | > 100 µM (inactive) | > 100 µM (inactive) | > 100 µM (inactive) | > 100 µM (inactive) | > 100 µM (inactive) | > 100 µM (inactive) | > 100 µM (inactive) | > 100 µM (inactive) | > 100 µM (inactive) | – | – | –
2 | CN(C)CCCNc1ccnc2c([N+](=O)[O-])cccc12 | 19.1 µM (inactive) | 24.9 µM (inactive) | 22.2 | 30.2 µM (inactive) | 2.37 µM (inactive) | – | 3.85 µM (inactive) | 20.7 µM (inactive) | > 10 µM (inactive) | 21.6 µM (inactive) | 13.6 µM (inactive) | 14.6 µM (inactive) | 35.3 µM (inactive) | – | > 10 µM (inactive) | 29.2 µM (inactive) | 15.2 µM (inactive)
3 | O=S(=O)(c1ccccc1)n1cnc(CCc2ccccc2)n1 | > 100 µM (inactive) | > 100 µM (inactive) | > 100 | > 100 µM (inactive) | > 100 µM (inactive) | > 100 µM (inactive) | > 100 µM (inactive) | > 100 µM (inactive) | > 100 µM (inactive) | > 100 µM (inactive) | – | > 100 µM (inactive) | > 100 µM (inactive) | 45.1 µM (inactive) | > 100 µM (inactive) | > 100 µM (inactive) | > 100 µM (inactive)
4 | CN(C)CCCCC1CCN(CC(=O)N2c3ccccc3NC(=O)c3ccccc32)CC1 | > 100 µM (inactive) | > 100 µM (inactive) | – | – | > 100 µM (inactive) | – | > 100 µM (inactive) | > 100 µM (inactive) | > 100 µM (inactive) | > 100 µM (inactive) | > 100 µM (inactive) | > 100 µM (inactive) | > 100 µM (inactive) | > 100 µM (inactive) | > 100 µM (inactive) | 28.1 µM (inactive) | > 100 µM (inactive)
5 | C[n+]1c2ccccc2c(/C=N\NS(=O)(=O)c2ccc(O)c(C(=O)O)c2)c2ccccc21 | 40.7 µM (inactive) | 60.3 µM (inactive) | 38.7 | 94 µM (inactive) | – | 32.7 µM (inactive) | > 100 µM (inactive) | 63.4 µM (inactive) | 27.5 µM (inactive) | 40.6 µM (inactive) | > 100 µM (inactive) | 91.4 µM (inactive) | 28.2 µM (inactive) | 34.2 µM (inactive) | 22.1 µM (inactive) | 64.1 µM (inactive) | > 100 µM (inactive)
6 | Cc1cc([N+](=O)[O-])ccc1Nc1cccc(Cl)c1C | 17 µM (inactive) | 16 µM (inactive) | 16.8 | 16.3 µM (inactive) | 17 µM (inactive) | 17.7 µM (inactive) | 24.3 µM (inactive) | – | 11.3 µM (inactive) | – | 18.3 µM (inactive) | 17.1 µM (inactive) | 11.6 µM (inactive) | 19.2 µM (inactive) | 18.2 µM (inactive) | 15.5 µM (inactive) | 16.5 µM (inactive)
7 | O=C1C2Cc3ccccc3CN2C(=O)N1CCN1CCOCC1 (configuration not stated) | > 100 µM (inactive) | > 100 µM (inactive) | > 100 | > 100 µM (inactive) | > 100 µM (inactive) | – | – | > 100 µM (inactive) | > 100 µM (inactive) | > 100 µM (inactive) | > 100 µM (inactive) | > 100 µM (inactive) | > 100 µM (inactive) | – | > 100 µM (inactive) | > 100 µM (inactive) | > 100 µM (inactive)
8 | COc1ccccc1/C=C(\C#N)c1ccccc1 | 82.8 µM (inactive) | 18.5 µM (inactive) | 18.4 | 24.6 µM (inactive) | 15.6 µM (inactive) | 27.7 µM (inactive) | 26.7 µM (inactive) | 34.8 µM (inactive) | 11.4 µM (inactive) | 20.8 µM (inactive) | 34.4 µM (inactive) | 41.5 µM (inactive) | 16.6 µM (inactive) | 25.9 µM (inactive) | – | 32.8 µM (inactive) | 30.2 µM (inactive)
9 | O=C1/C(=N\O)S(=O)(=O)c2ccccc21 | > 100 µM (inactive) | > 100 µM (inactive) | > 100 | > 100 µM (inactive) | > 100 µM (inactive) | > 100 µM (inactive) | > 100 µM (inactive) | > 100 µM (inactive) | > 100 µM (inactive) | > 100 µM (inactive) | > 100 µM (inactive) | – | > 100 µM (inactive) | > 100 µM (inactive) | > 100 µM (inactive) | > 100 µM (inactive) | > 100 µM (inactive)
10 | N=S(=O)(c1ccccc1)c1ccccc1[N+](=O)[O-] (configuration not stated) | – | > 100 µM (inactive) | > 100 | > 100 µM (inactive) | > 100 µM (inactive) | > 100 µM (inactive) | > 100 µM (inactive) | > 100 µM (inactive) | > 100 µM (inactive) | > 100 µM (inactive) | > 100 µM (inactive) | > 100 µM (inactive) | > 100 µM (inactive) | > 100 µM (inactive) | > 100 µM (inactive) | > 100 µM (inactive) | > 100 µM (inactive)
11 | N#C/N=C1\NCCC(=O)N1CCc1c[nH]c2ccccc12 | > 100 µM (inactive) | > 100 µM (inactive) | > 100 | – | > 100 µM (inactive) | > 100 µM (inactive) | > 100 µM (inactive) | > 100 µM (inactive) | > 100 µM (inactive) | > 100 µM (inactive) | > 100 µM (inactive) | > 100 µM (inactive) | – | > 100 µM (inactive) | > 100 µM (inactive) | > 100 µM (inactive) | > 100 µM (inactive)
12 | O=C1c2ccccc2-c2cccc3ccc(Cc4ccccc4)c1c23 | > 100 µM (inactive) | > 100 µM (inactive) | > 100 | > 100 µM (inactive) | > 100 µM (inactive) | > 100 µM (inactive) | – | > 100 µM (inactive) | 37.6 µM (inactive) | > 100 µM (inactive) | > 100 µM (inactive) | > 100 µM (inactive) | – | 6.53 µM (inactive) | > 100 µM (inactive) | > 100 µM (inactive) | 84.3 µM (inactive)
13 | CCCN1C(=O)C/C(=C\C(C)=O)Nc2ccccc21 | > 100 µM (inactive) | > 100 µM (inactive) | > 100 | > 100 µM (inactive) | 86.3 µM (inactive) | > 100 µM (inactive) | > 100 µM (inactive) | > 100 µM (inactive) | > 100 µM (inactive) | – | > 100 µM (inactive) | > 100 µM (inactive) | > 100 µM (inactive) | > 100 µM (inactive) | – | > 100 µM (inactive) | > 100 µM (inactive)
14 | O=C(c1ccccc1)c1oc2ccc(Br)cc2c1-c1cnn(-c2ccccc2)c1 | > 100 µM (inactive) | > 100 µM (inactive) | > 100 | – | > 100 µM (inactive) | > 100 µM (inactive) | > 100 µM (inactive) | – | > 100 µM (inactive) | 54.7 µM (inactive) | > 100 µM (inactive) | > 100 µM (inactive) | > 100 µM (inactive) | > 100 µM (inactive) | > 100 µM (inactive) | > 100 µM (inactive) | > 100 µM (inactive)
